Measured values published in patent US10294212B2 (CURADEV PHARMA PRIVATE LTD., priority 2013, dated 2019).
Structures can show the parent of a compound that is named as a salt.

Assays:
[1] = biological target: Human TDO (hTDO)-transfected CHO-K1 cells (Homo sapiens (Human), UniProt P48775); test: CHO-K1 cell based TDO assay; settings: hTDO cellular assay
Procedure, shortened: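 Kynurenine output was read by LC/MS/MS after TCA precipitation and 15 min at 65° C. Before that, CHO-K1 cells stably carrying human TDO2 were incubated 2 h with compounds (typically 31 μM to 10 nM) and 80 μM L-tryptophan in HBSS. Decrease versus DMSO vehicle gave percent inhibition, then IC50.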

[2] = biological target: Human indoleamine 2,3-dioxygenase1 (hIDO1) (Homo sapiens (Human), UniProt P14902); test: In-vitro IDO1 enzyme assay (conversion of L-tryptophan to KYN); type: biochemical; settings: read-out: IC50 (IDO1) Enz
Procedure, shortened: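 Kynurenine formation quantified by HPLC absorbance at 360 nm or LC/MS/MS after TCA quench and 15 min at 65 °C. Reaction: 10 nM N-His hIDO1, 30 μM tryptophan, ascorbate/methylene blue/catalase, pH 6.5 phosphate buffer, 37 °C for 30 min. Inhibition relative to 1% DMSO vehicle, fitted to IC50.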

[3] = biological target: IDO1 in HeLa cells (Homo sapiens (Human), UniProt P14902); test: HeLa cell based IDO1 assay (IFNγ-induced, KYN in supernatant)
Procedure, shortened: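 Kynurenine in the supernatant, quantified by C-18 HPLC with 360 nm absorbance after TCA hydrolysis (65 °C, 15 min), was the read-out. Compounds (typically 10 μM to 1 nM) were added in HBSS containing 80 μM tryptophan to HeLa cells pre-induced overnight with 50 ng/mL IFNγ. IC50 came from nonlinear fits of % inhibition versus 1% DMSO vehicle.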

Human indoleamine 2,3-dioxygenase1 (hIDO1), sequence (P14902 whole entry): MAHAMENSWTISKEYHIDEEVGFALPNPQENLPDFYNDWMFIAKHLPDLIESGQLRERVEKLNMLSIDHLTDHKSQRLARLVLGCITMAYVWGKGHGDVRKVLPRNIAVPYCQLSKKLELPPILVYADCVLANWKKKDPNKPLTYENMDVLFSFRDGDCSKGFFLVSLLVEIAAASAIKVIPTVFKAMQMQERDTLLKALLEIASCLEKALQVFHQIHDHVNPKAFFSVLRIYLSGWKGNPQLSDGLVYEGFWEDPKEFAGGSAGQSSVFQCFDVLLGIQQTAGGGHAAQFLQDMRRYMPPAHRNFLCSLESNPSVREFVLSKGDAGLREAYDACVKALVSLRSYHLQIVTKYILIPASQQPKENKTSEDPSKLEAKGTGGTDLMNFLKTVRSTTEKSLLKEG
IDO1 in HeLa cells, sequence (P14902 whole entry): as above
Human TDO (hTDO)-transfected CHO-K1 cells, sequence (P48775 whole entry): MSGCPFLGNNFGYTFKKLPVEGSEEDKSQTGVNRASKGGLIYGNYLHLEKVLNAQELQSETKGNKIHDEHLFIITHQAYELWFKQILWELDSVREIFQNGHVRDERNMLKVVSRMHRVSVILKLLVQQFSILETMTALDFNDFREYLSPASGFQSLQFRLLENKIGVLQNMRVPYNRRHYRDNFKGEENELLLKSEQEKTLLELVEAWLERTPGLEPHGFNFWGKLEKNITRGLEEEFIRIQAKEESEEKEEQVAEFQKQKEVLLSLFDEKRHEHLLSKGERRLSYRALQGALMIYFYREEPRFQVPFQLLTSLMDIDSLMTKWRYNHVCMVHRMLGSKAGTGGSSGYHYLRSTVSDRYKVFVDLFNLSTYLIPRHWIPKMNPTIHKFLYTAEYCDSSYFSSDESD

SMILES | IC50 [1] [nM] | IC50 [2] [nM] | IC50 [3] [nM]
Cc1cc(-c2nccc3c(Nc4ccc(F)c(Cl)c4)c(N)oc23)ccn1 [Compound 158, N^3-(3-chloro-4-fluorophenyl)-7-(2-methylpyridin-4-yl)furo[2,3-c]pyridine-2,3-diamine] | 500 to 2000 | < 200 | < 200
Nc1sc2ccccc2c1Nc1cccc(C(F)(F)F)c1 [Compound 119, N^3-(3-(Trifluoromethyl)phenyl)benzo[b]thiophene-2,3-diamine] | > 2000 | < 200 | < 200
Cc1cc(-c2nccc3c(Nc4cccc(Cl)c4F)c(N)oc23)ccn1 [Compound 264, N^3-(3-Chloro-2-fluorophenyl)-7-(2-methylpyridin-4-yl)furo[2,3-c]pyridine-2,3-diamine] | > 2000 | 200 to 1000 | < 200
CCc1cc(-c2nccc3c(Nc4ccc(F)c(Cl)c4)c(N)oc23)ccn1 [Compound 262, N^3-(3-Chloro-4-fluorophenyl)-7-(2-ethylpyridin-4-yl)furo[2,3-c]pyridine-2,3-diamine] | 500 to 2000 | < 200 | < 200
Cc1cc(-c2nccc3c(Nc4cccc(C(F)(F)F)c4)c(N)oc23)ccn1 [Compound 207, 7-(2-methylpyridin-4-yl)-N^3-(3-(trifluoromethyl)phenyl)furo[2,3-c]pyridine-2,3-diamine] | 500 to 2000 | < 200 | < 200
CCCCCNC(=O)c1cc(-c2nccc3c(Nc4ccc(F)c(Cl)c4)c(N)oc23)ccn1 [Compound 275, 4-(2-Amino-3-((3-chloro-4-fluorophenyl)amino)furo[2,3-c]pyridin-7-yl)-N-pentylpicolinamide] | > 2000 | < 200 | 200 to 1000
Cc1ccc2sc(N)c(Nc3ccc(F)c(Cl)c3)c2c1 [Compound 214, N^3-(3-Chloro-4-fluorophenyl)-5-methylbenzo[b]thiophene-2,3-diamine] | > 2000 | 200 to 1000 | < 200
CNC(=O)c1cc(-c2nccc3c(Nc4ccc(F)c(C(F)(F)F)c4)c(N)oc23)ccn1 [Compound 227, 4-(2-amino-3-((4-fluoro-3-(trifluoromethyl)phenyl)amino)furo[2,3-c]pyridin-7-yl)-N-methylpicolinamide] | > 2000 | < 200 | < 200
N#Cc1nccc2c(Nc3ccc(F)c(C(F)(F)F)c3)c(N)oc12 [Compound 183, 2-Amino-3-((4-fluoro-3-(trifluoromethyl)phenyl)amino)furo[2,3-c]pyridine-7-carbonitrile] | 500 to 2000 | < 200 | < 200
Nc1oc2c(F)nccc2c1Nc1ccc(F)c(C(F)(F)F)c1 [Compound 189, 7-Fluoro-N^3-(4-fluoro-3-(trifluoromethyl)phenyl)furo[2,3-c]pyridine-2,3-diamine] | 500 to 2000 | < 200 | < 200
Nc1sc2c(-c3ccccc3)cccc2c1Nc1ccc(F)c(Cl)c1 [Compound 233, N^3-(3-Chloro-4-fluorophenyl)-7-phenylbenzo[b]thiophene-2,3-diamine] | > 2000 | < 200 | < 200
Nc1oc2cnccc2c1Nc1ccc2c(c1)OCO2 [Compound 35, N^3-(Benzo[d][1,3]dioxol-5-yl)furo[2,3-c]pyridine-2,3-diamine] | 500 to 2000 | 200 to 1000 | < 200
COc1cccc(Nc2c(N)sc3ccccc23)c1 [Compound 235, N^3-(3-Methoxyphenyl)benzo[b]thiophene-2,3-diamine] | < 500 | 200 to 1000 | < 200
Nc1oc2c(-c3ccncc3)nccc2c1Nc1ccccc1Cl [Compound 202, N^3-(2-Chlorophenyl)-7-(pyridin-4-yl)furo[2,3-c]pyridine-2,3-diamine] | 500 to 2000 | < 200 | < 200
COc1cncc2oc(N)c(Nc3ccc(F)c(Cl)c3)c12 [Compound 67, N^3-(3-Chloro-4-fluoro-phenyl)-4-methoxy-furo[2,3-c]pyridine-2,3-diamine] | 500 to 2000 | > 1000 | < 200
COc1ccccc1-c1nccc2c(Nc3ccc(F)c(F)c3)c(N)oc12 [Compound 196, N^3-(3,4-Difluorophenyl)-7-(2-methoxyphenyl)furo[2,3-c]pyridine-2,3-diamine] | < 500 | 200 to 1000 | < 200
COc1cc2c(Nc3ccc(F)c(Cl)c3)c(N)oc2c(Br)n1 [Compound 172, 7-Bromo-N^3-(3-chloro-4-fluorophenyl)-5-methoxyfuro[2,3-c]pyridine-2,3-diamine] | > 2000 | < 200 | < 200

SMILES | IC50 [1] [nM] | IC50 [2] [nM] | IC50 [3] [nM]
Nc1sc2ccc(Cl)cc2c1Nc1cccc(C(F)(F)F)c1 [Compound 133, 5-Chloro-N^3-(3-(trifluoromethyl)phenyl)benzo[b]thiophene-2,3-diamine hydrochloride] | 500 to 2000 | 200 to 1000 | 200 to 1000
Cc1cc(Nc2c(N)oc3cnccc23)ccc1Cl [Compound 70, N^3-(4-Chloro-3-methylphenyl)furo[2,3-c]pyridine-2,3-diamine] | 500 to 2000 | 200 to 1000 | < 200
Nc1oc2c(N(c3ccccc3)c3ccccc3)nccc2c1Nc1ccc(F)c(Cl)c1 [Compound 200, N^3-(3-Chloro-4-fluorophenyl)-N^7,N^7-diphenylfuro[2,3-c]pyridine-2,3,7-triamine] | > 2000 | 200 to 1000 | < 200
Nc1oc2cnccc2c1Nc1ccc(F)c(Br)c1 [Compound 58, N^3-(3-Bromo-4-fluorophenyl)furo[2,3-c]pyridine-2,3-diamine] | < 500 | < 200 | < 200
Nc1oc2c(-c3ccnc(C(=O)N4CCOCC4)c3)nccc2c1Nc1ccc(F)c(Cl)c1 [Compound 272, (4-(2-Amino-3-((3-chloro-4-fluorophenyl)amino)furo[2,3-c]pyridin-7-yl)pyridin-2-yl)(morpholino)methanone] | 500 to 2000 | < 200 | < 200
Nc1oc2c(I)nccc2c1Nc1ccc(F)c(Cl)c1 [Compound 153, N^3-(3-Chloro-4-fluorophenyl)-7-iodofuro[2,3-c]pyridine-2,3-diamine] | < 500 | < 200 | < 200
Nc1oc2c(F)nccc2c1Nc1ccc(F)c(Cl)c1 [Compound 176, N^3-(3-chloro-4-fluorophenyl)-7-fluorofuro[2,3-c]pyridine-2,3-diamine] | < 500 | < 200 | < 200
Cc1cc(-c2nc(C)cc3c(Nc4ccc(F)c(Cl)c4)c(N)oc23)ccn1 [Compound 267, N^3-(3-Chloro-4-fluorophenyl)-5-methyl-7-(2-methylpyridin-4-yl)furo[2,3-c]pyridine-2,3-diamine] | > 2000 | < 200 | < 200
CNC(=O)c1cc(-c2nccc3c(Nc4ccc(F)cc4)c(N)oc23)ccn1 [Compound 224, 4-(2-Amino-3-((4-fluorophenyl)amino)furo[2,3-c]pyridin-7-yl)-N-methylpicolinamide] | < 500 | < 200 | < 200
Cc1ccc(Nc2c(N)oc3cnccc23)cc1C [Compound 13, N^3-(3,4-Dimethylphenyl)furo[2,3-c]pyridine-2,3-diamine] | 500 to 2000 | 200 to 1000 | < 200
Cc1ccc(Nc2c(N)oc3cnccc23)cc1Cl [Compound 33, N^3-(3-Chloro-4-methylphenyl)furo[2,3-c]pyridine-2,3-diamine] | 500 to 2000 | < 200 | < 200
CNC(=O)c1cc(-c2nccc3c(Nc4ccccc4Cl)c(N)oc23)ccn1 [Compound 219, 4-(2-Amino-3-((2-chlorophenyl)amino)furo[2,3-c]pyridin-7-yl)-N-methylpicolinamide] | 500 to 2000 | < 200 | < 200
C#Cc1cc(Nc2c(N)oc3c(-c4ccccc4)nccc23)ccc1F [Compound 110, N^3-(3-Ethynyl-4-fluorophenyl)-7-phenylfuro[2,3-c]pyridine-2,3-diamine] | 500 to 2000 | < 200 | < 200
COc1cc2c(Nc3ccc(F)c(Cl)c3)c(N)oc2cn1 [Compound 64, N^3-(3-Chloro-4-fluoro-phenyl)-5-methoxy-furo[2,3-c]pyridine-2,3-diamine] | 500 to 2000 | < 200 | < 200
Nc1oc2cc([N+](=O)[O-])ccc2c1Nc1ccc(F)c(Cl)c1 [Compound 179, N^3-(3-chloro-4-fluorophenyl)-6-nitrobenzofuran-2,3-diamine] | 500 to 2000 | < 200 | < 200
CCOC(=O)Nc1oc2c(-c3ccnc(C)c3)nccc2c1N(C(=O)OCC)c1ccc(F)c(F)c1 [Compound 279, Ethyl (3,4-difluorophenyl)(2-((ethoxycarbonyl)amino)-7-(2-methylpyridin-4-yl)furo[2,3-c]pyridin-3-yl)carbamate] | > 2000 | > 1000 | > 1000
